Test results reported in US20190262321A1, “METHODS OF TREATING DIABETIC NEPHROPATHY USING HPTPB INHIBITORS” (Aerpio Therapeutics, Inc., priority 2018, published 2019).

Assays:
Male C57BL6 mice [1] = experiment: Renal vascular leak after LPS (fluorescent dextrans, tomato lectin); type: in vivo; settings: 24 h after LPS
Description: Male C57BL6 mice, 9-10 weeks old, were injected i.p. with 0.2 mg E. coli LPS per 25 g body weight. The mice were injected with compound AA34 (50 mg/kg, 50 μL) or the vehicle (50 μL) at the time of lipopolysaccharide (LPS) injection, 8 after LPS injection, and 16 hours after LPS injection. The mice were sacrificed 24 h after the LPS injection. The saline-injected mice were studied in parallel as controls. Mice were injected with LPS and drug (compound AA34) versus the vehicle (LPS only). 2 min prior to sacrificing the animals at 24 h, the mice were injected with 70 kDa and 500 kDa fluorescent fixable dextrans by intravenous catheter.

TNFR1 = experiment: RT-PCR of kidney homogenate after LPS: TNFR1; type: in vivo, mice; settings: versus vehicle
Description: (§1) Male C57BL6 mice, 9-10 weeks old, were injected i.p. with 0.2 mg E. coli LPS per 25 g body weight. The mice were injected with compound AA34 (50 mg/kg, 50 μL) or the vehicle (50 μL) at the time of lipopolysaccharide (LPS) injection, 8 after LPS injection, and 16 hours after LPS injection. The mice were sacrificed 24 h after the LPS injection. The saline-injected mice were studied in parallel as controls. Phosphatase inhibition by compound AA34 reduced renal mRNA expression of various mediators of inflammation and coagulation, as shown in FIG. 8. The kidneys of the mice were analyzed for RNA level expression of various inflammatory mediators. […] TNFR1, PAI-1, and tissue factor were expressed mainly in the endothelium, the site of Tie2 expression.

Tie2 = experiment: Immunoprecipitation of kidney homogenate for Tie2 phosphorylation after LPS; type: in vivo, mice
Description: Male C57BL6 mice, 9-10 weeks old, were injected i.p. with 0.2 mg E. coli LPS per 25 g body weight. The mice were injected with compound AA34 (50 mg/kg, 50 μL) or the vehicle (50 μL) at the time of lipopolysaccharide (LPS) injection, 8 after LPS injection, and 16 hours after LPS injection. The mice were sacrificed 24 h after the LPS injection. The saline-injected mice were studied in parallel as controls. Immunoprecipitation of kidney homogenate was performed to analyze the extent of Tie2 phosphorylation in the drug versus vehicle groups. Immunoprecipitation of kidney homogenate was completed using anti-Tie2 Ab, which was probed using anti-phosphotyrosine Ab. Total Tie2 levels were equal in the drug-treated and vehicle-treated groups after being injected with LPS.

Male C57BL6 mice [2] = experiment: Endotoxin (LPS)-induced acute kidney injury: serum BUN and kidney histology; type: in vivo
Description: (§2) Male C57BL6 mice, 9-10 weeks old, were injected i.p. with 0.2 mg E. coli LPS per 25 g body weight. The mice were injected with compound AA34 (50 mg/kg, 50 μL) or the vehicle (50 μL) at the time of lipopolysaccharide (LPS) injection, 8 after LPS injection, and 16 hours after LPS injection. The mice were sacrificed 24 h after the LPS injection. The saline-injected mice were studied in parallel as controls. Serum samples from the mice were analyzed for BUN as a marker of kidney function.

human subjects = experiment: Assessment of renal function indices (UACR) in subjects treated with compound AA34; type: in vivo; settings: for % Change in Geometric Mean (UACR): baseline to end of treatment (three months), patients with albuminuria at baseline
Description: The human subjects treated with compound AA34 were administered 15 mg of the compound subcutaneously twice a day for three months. One group of subjects received the compound and ranibizumab (RBZ; 0.3 mg monthly via intraocular injection), while the other group received only the compound with a sham intraocular injection. The subjects in the placebo arm received a placebo subcutaneously twice a day along with ranibizumab. […] Within the subjects that had albuminuria, 30% had microalbuminuria (>30 mg/g and <300 mg/g UACR) and 20% had macroalbuminuria (>300 mg/g UACR).
The results of the study are shown in FIG. 2 and TABLE 2 as the % change from baseline to end of treatment (three months) in geometric mean +95% confidence interval in the patients with albuminuria at baseline.

[3] = tested on: inducible nitric oxide synthase (iNOS); experiment: RT-PCR of kidney homogenate after LPS: iNOS; type: in vivo, mice; settings: versus vehicle
Description: as §1

Male C57BL6 mice [4] = experiment: Renal apoptosis after LPS (DNA laddering, TUNEL staining); type: in vivo; settings: versus vehicle
Description: as §2, with “Apoptosis was detected in kidney homogenate using DNA laddering, which is” for “Serum samples from”, “result” for “mice were analyzed for BUN as a marker”, “apoptotic DNA fragmentation. […] Terminal deoxynucleotidyl transferase dUTP nick end labeling (TUNEL) staining was used to visualize the presence of apoptotic nuclei.” for “kidney function.”

tissue factor = experiment: RT-PCR of kidney homogenate after LPS: tissue factor; type: in vivo, mice; settings: versus vehicle
Description: as §1

[5] = tested on: plasminogen activator inhibitor-1 (PAI-1); experiment: RT-PCR of kidney homogenate after LPS: PAI-1; type: in vivo, mice; settings: versus vehicle
Description: as §1

Male C57BL6 mice [6] = experiment: LPS-induced renal neutrophil infiltration; type: in vivo; settings: 24 h after LPS injection
Description: Male C57BL6 mice, 9-10 weeks old, were injected i.p. with 0.2 mg E. coli LPS per 25 g body weight. The mice were injected with compound AA34 (50 mg/kg, 50 μL) or the vehicle (50 μL) at the time of lipopolysaccharide (LPS) injection, 8 after LPS injection, and 16 hours after LPS injection. The mice were sacrificed 24 h after the LPS injection. The saline-injected mice were studied in parallel as controls.

[7] = Baseline UACR 30-300 mg/g (n 31)

`COC(=O)N[C@@H](Cc1ccccc1)C(=O)N[C@@H](Cc1ccc(NS(=O)(=O)O)cc1)c1csc(-c2cccs2)n1` [AA34] was tested, and the “LPS-induced extrusion of dye beyond the small peritubular capillaries (vascular leak)” value (Male C57BL6 mice [1]; 70 kDa and 500 kDa fluorescent fixable dextrans) was “markedly reduced”, the “tomato lectin staining of peritubular capillaries (vascular integrity)” value (Male C57BL6 mice [1]) was “relatively preserved” and the “reduction of renal mRNA expression of TNFR1” value (TNFR1) was “about 6 fold”. The “tyrosine phosphorylated Tie2 in kidney homogenate” value (Tie2; LPS+Compound AA34 versus LPS+vehicle, 8 h after the last dose) was “increased levels”, the “Total Tie2 levels in kidney homogenate” value (Tie2; drug-treated versus vehicle-treated groups after LPS) was “equal” and the “morphologic tubular injury (histology)” value (Male C57BL6 mice [2]; 24 h after LPS injection, drug versus vehicle) was “less morphologic tubular injury”. For the same molecule, the “LPS-induced rise in BUN” value (Male C57BL6 mice [2]; serum, 24 h after LPS, 50 mg/kg at 0, 8 and 16 hours, versus vehicle, p=0.002) was “statistically reduced”, the “shift analysis: subjects with UACR 30-300 at Month 3/EOT” value (human subjects; [7]) was 25 (81%) and the “shift analysis: subjects with UACR <30 at Month 3/EOT” value (human subjects; [7]) was 4 (13%). For the same molecule, the “shift analysis: subjects with UACR >300 at Month 3/EOT” value (human subjects; [7]) was 2 (6%), the “shift analysis: subjects with UACR 30-300 at Month 3/EOT” value (human subjects; Baseline UACR <30 mg/g (n 43)) was 2 (5%) and the “shift analysis: subjects with UACR <30 at Month 3/EOT” value (human subjects; Baseline UACR <30 mg/g (n 43)) was 41 (95%). The “shift analysis: subjects with UACR >300 at Month 3/EOT” value (human subjects; Baseline UACR <30 mg/g (n 43)) was 0, the “shift analysis: subjects with UACR 30-300 at Month 3/EOT” value (human subjects; Baseline UACR >300 mg/g (n 18)) was 1 (6%) and the “shift analysis: subjects with UACR <30 at Month 3/EOT” value (human subjects; Baseline UACR >300 mg/g (n 18)) was 1 (6%). For the same molecule, the “shift analysis: subjects with UACR >300 at Month 3/EOT” value (human subjects; Baseline UACR >300 mg/g (n 18)) was 16 (89%), the “% Change in Geometric Mean (UACR)” value (human subjects; 15 mg subcutaneously twice a day) was −17.7% and the “% Change in Geometric Mean (UACR)” value (human subjects; 15 mg subcutaneously twice a day, listed as All Compound) was −21.2%. The “reduction in the UACR compared to patients receiving placebo” value (human subjects; three months, 15 mg subcutaneously twice a day) was ~20%, the “reduction of renal mRNA expression of iNOS” value [3] was “about 1.5 fold” and the “DNA laddering (apoptosis) in kidney homogenate” value (Male C57BL6 mice [4]) was “less DNA laddering”. For the same molecule, the “apoptosis (TUNEL staining of apoptotic nuclei)” value (Male C57BL6 mice [4]) was “less apoptosis”, the “reduction of renal mRNA expression of tissue factor” value (tissue factor) was “about 0.8 fold” and the “reduction of renal mRNA expression of PAI-1” value [5] was “about 5 fold”. For the same molecule, the “reduction of renal neutrophil infiltration” value (Male C57BL6 mice [6]) was “over 50%”.
